Measurements published in patent US20250101041A1, “POSITIVE ALLOSTERIC MODULATORS OF THE MUSCARINIC ACETYLCHOLINE RECEPTOR M4” (Vanderbilt University, priority 2022, published 2025).

Biological target: T1, human mAChR M4 (Homo sapiens, UniProt P08173)
T1 construct: expressed in transfected cells; host or cells: CHO-K1 (American Type Culture Collection), stably expressing hM4 and Gqi5
T1 sequence (P08173 1-479): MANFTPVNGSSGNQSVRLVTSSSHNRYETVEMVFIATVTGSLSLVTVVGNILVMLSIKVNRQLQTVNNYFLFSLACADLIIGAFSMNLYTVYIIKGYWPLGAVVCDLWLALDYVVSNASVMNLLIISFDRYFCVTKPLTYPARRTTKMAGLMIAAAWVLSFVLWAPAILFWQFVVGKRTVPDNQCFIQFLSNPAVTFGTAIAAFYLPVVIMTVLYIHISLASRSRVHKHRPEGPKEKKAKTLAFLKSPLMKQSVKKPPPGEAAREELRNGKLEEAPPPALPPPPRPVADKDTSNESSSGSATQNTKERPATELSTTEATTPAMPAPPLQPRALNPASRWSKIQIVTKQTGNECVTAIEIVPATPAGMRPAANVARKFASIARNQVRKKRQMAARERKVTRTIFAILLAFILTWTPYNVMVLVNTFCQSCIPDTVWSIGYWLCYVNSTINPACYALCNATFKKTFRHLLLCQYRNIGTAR
Assay: mAChR M4 cell-based functional assay: calcium mobilization (Fluo-4, FDSS), potentiation of EC20 acetylcholine response in hM4-Gqi5 CHO-K1 cells
Details: human M4; for Emax at 30 µM: CHO-K1, % ACh maximum at 30 μM; for EC50: potentiation of EC20 acetylcholine response, calcium mobilization
Method: Human and rat M4 cDNAs, along with the chimeric G protein Gqi5, were transfected into Chinese hamster ovary (CHO-K1) cells purchased from the American Type Culture Collection using Lipofectamine2000. hM4-Gqi5 cells were grown in Ham's F-12 medium containing 10% heat-inactivated fetal bovine serum (FBS), 20 mM HEPES, 50 μg/mL G418 sulfate, and 500 μg/mL Hygromycin B. rM4-Gqi5 cells were grown in DMEM containing 10% heat-inactivated FBS, 20 mM HEPES, 400 μg/mL G418 sulfate, and 500 μg/mL Hygromycin B.
For high throughput measurement of agonist-evoked increases in intracellular calcium, CHO-K1 cells stably expressing muscarinic receptors were plated in growth medium lacking G418 and hygromycin at 15,000 cells/20 μL/well in Greiner 384-well black-walled, tissue culture (TC)-treated, clear-bottom plates (VWR). Cells were incubated overnight at 37° C. and 5% CO2. The next day, cells were washed using an ELX 405 (BioTek) with assay buffer; the final volume was then aspirated to 20 μL. Next, 20 μL of a […] of Fluo-4/acetoxymethyl ester (Invitrogen, Carlsbad, CA), prepared as a 2.3 mM stock in DMSO and mixed in a 1:1 ratio with 10% (w/v) Pluronic F-127 and diluted in assay buffer, was added to the wells and the cell plates were incubated for 50 min at 37° C. and 5% CO2. Dye was removed by washing with the ELX 405 and the final volume was aspirated to 20 μL. Compound master plates were formatted in an 11 point concentration-response curve (CRC) format (1:3 dilutions) in 100% DMSO with a starting concentration of 10 mM using a BRAVO liquid handler (Agilent). Test compound CRCs were then transferred to daughter plates (240 nL) using the Echo acoustic plate reformatter (Labcyte, Sunnyvale, CA) and then diluted into assay buffer (40 μL) to a 2× stock using a Thermo Fisher Combi (Thermo Fisher Scientific, Waltham, MA).
Calcium flux was measured using the Functional Drug Screening System (FDSS) 6000 or 7000 (Hamamatsu Corporation, Tokyo, Japan) as an increase in the fluorescent static ratio. Compounds were applied to cells (20 μL, 2X) using the automated system of the FDSS at 2-4 seconds into the protocol and the data were collected at 1 Hz. At 144 seconds, 10 μL of an EC20 concentration of the muscarinic receptor agonist acetylcholine was added (5×), followed by the addition of 12 μL of an […] concentration of acetylcholine at the 230 second time point (5×). Agonist activity was analyzed as a concentration-dependent increase in calcium mobilization upon compound addition. Positive allosteric modulator activity was analyzed as a concentration-dependent increase in the EC20 acetylcholine response. Antagonist activity was analyzed as a concentration-dependent decrease in the EC20 acetylcholine response. Concentration-response curves were generated using a four-parameter logistical equation in XLFit curve fitting software (IDBS, Bridgewater, NJ) for Excel (Microsoft, Redmond, WA) or Prism (GraphPad Software, Inc., San Diego, CA).
Compounds were synthesized as described above. Activity (EC50 and Emax) was determined in the mAChR M4 cell-based functional assay as described above and the data are shown in Table 4. The compound number corresponds to the compound numbers used in Tables 1-3.

SMILES | Emax at 30 µM [%] | EC50 [nM]
Cc1cc2ncc(Cl)c(=O)n2nc1N1CCc2ncc(C3CC3)cc2C1 [Compound 1-9, 3-chloro-7-(3-cyclopropyl-7,8-dihydro-1,6-naphthyridin-6(5H)-yl)-8-methyl-4H-pyrimido[1,2-b]pyridazin-4-one] | 75 | 25
Cc1cc2ncc(Cl)c(=O)n2nc1N1CCc2ncc(-c3cn(C)nc3C)cc2C1 [Compound 1-11, 3-chloro-7-(3-(1,3-dimethyl-1H-pyrazol-4-yl)-7,8-dihydro-1,6-naphthyridin-6(5H)-yl)-8-methyl-4H-pyrimido[1,2-b]pyridazin-4-one] | 92 | 158
Cc1ncc(-c2cnc3c(c2)CN(c2nn4c(=O)c(Cl)cnc4cc2C)CC3)s1 [Compound 1-13, 3-chloro-8-methyl-7-(3-(2-methylthiazol-5-yl)-7,8-dihydro-1,6-naphthyridin-6(5H)-yl)-4H-pyrimido[1,2-b]pyridazin-4-one] | 79 | 373
Cc1cc2nc(C)c(F)c(=O)n2nc1N1CCc2ncc(C(F)(F)F)cc2C1 [Compound 1-15, 3-fluoro-2,8-dimethyl-7-(3-(trifluoromethyl)-7,8-dihydro-1,6-naphthyridin-6(5H)-yl)-4H-pyrimido[1,2-b]pyridazin-4-one] | 73 | 136
Cc1cc2nc(C(F)(F)F)cc(=O)n2nc1N1CCc2ncc(C(F)(F)F)cc2C1 [Compound 1-17, 8-methyl-2-(trifluoromethyl)-7-(3-(trifluoromethyl)-7,8-dihydro-1,6-naphthyridin-6(5H)-yl)-4H-pyrimido[1,2-b]pyridazin-4-one] | 79 | 105
Cc1nc2c(C)c(C)c(N3CCc4ncc(C(F)(F)F)cc4C3)nn2c(=O)c1F [Compound 1-18, 3-fluoro-2,8,9-trimethyl-7-(3-(trifluoromethyl)-7,8-dihydro-1,6-naphthyridin-6(5H)-yl)-4H-pyrimido[1,2-b]pyridazin-4-one] | 106 | 94

The remaining compounds from weak to strong by EC50, led by results:

Emax at 30 µM [%] | EC50 [nM] | SMILES
70 | 586 | Cc1cc2ncc(C3=CCCC3)c(=O)n2nc1N1CCc2ncc(C(F)(F)F)cc2C1 [Compound 1-20, 3-(Cyclopent-1-en-1-yl)-8-methyl-7-(3-(trifluoromethyl)-7,8-dihydro-1,6-naphthyridin-6(5H)-yl)-4H-pyrimido[1,2-b]pyridazin-4-one]
71 | 340 | Cc1cc(=O)n2nc(N3CCc4ncc(C(F)(F)F)cc4C3)c(C)cc2n1 [Compound 1-16, 2,8-dimethyl-7-(3-(trifluoromethyl)-7,8-dihydro-1,6-naphthyridin-6(5H)-yl)-4H-pyrimido[1,2-b]pyridazin-4-one]
86 | 162 | Cc1cc2ncc(Cl)c(=O)n2nc1N1CCc2ncc(-c3ccnn3C)cc2C1 [Compound 1-10, 3-chloro-8-methyl-7-(3-(1-methyl-1H-pyrazol-5-yl)-7,8-dihydro-1,6-naphthyridin-6(5H)-yl)-4H-pyrimido[1,2-b]pyridazin-4-one]
80 | 127 | Cc1cc2ncc(Cl)c(=O)n2nc1N1CCc2ncc(-c3cnn(C4CC4)c3)cc2C1 [Compound 1-12, 3-chloro-7-(3-(1-cyclopropyl-1H-pyrazol-4-yl)-7,8-dihydro-1,6-naphthyridin-6(5H)-yl)-8-methyl-4H-pyrimido[1,2-b]pyridazin-4-one]
70 | 113 | Cc1cc2ncc(N3CCOCC3)c(=O)n2nc1N1CCc2ncc(C(F)(F)F)cc2C1 [Compound 1-19, 8-Methyl-3-morpholino-7-(3-(trifluoromethyl)-7,8-dihydro-1,6-naphthyridin-6(5H)-yl)-4H-pyrimido[1,2-b]pyridazin-4-one]
77 | 69 | Cc1ccc(-c2cnc3c(c2)CN(c2nn4c(=O)c(Cl)cnc4cc2C)CC3)cn1 [Compound 1-14, 3-chloro-8-methyl-7-(3-(6-methylpyridin-3-yl)-7,8-dihydro-1,6-naphthyridin-6(5H)-yl)-4H-pyrimido[1,2-b]pyridazin-4-one]
